# Biological target: T1, recombinant nucleolin (Homo sapiens, UniProt P19338)
# T1 construct: without the N-terminal acidic stretches domain
# Assay: Nucleolin/nucleic acid ligand interaction, gel retardation assay
# Assay type: binding
# Design: key: A “+” represents the weakest nucleolin affinity; a “++++” represents the strongest nucleolin affinity
# Conditions: relative affinity of each nucleic acid ligand for nucleolin; nucleolin ~250 nM, 32P-labeled ligand 10 or 250 nM, 30 minutes at room temperature
# Description: The following assays can be used to assess the effects of compounds on interactions between nucleolin and nucleic acid ligands capable of forming quadruplex (QP) and hairpin (HP) secondary structures. Nucleic acid ligands tested were a cMyc QP DNA having nucleotide sequence 5′-[…]-3′ and a HP pre-rRNA region to which nucleolin binds, having the sequence 5′-[…]-3′. In the assays, recombinant nucleolin (˜250 nM), which has been fused to maltose binding protein, and has the sequence under accession number NM_005381 without the N-terminal acidic stretches domain, is incubated with each of the two ^32P-labeled nucleic acid ligands (10 or 250 nM). Nucleolin and the nucleic acid ligand are incubated in the presence or absence of a test compound 7 in an incubation buffer (12.5 mM Tris, pH 7.6, 60 mM KCl, 1 mM MgCl2, 0.1 mM EDTA, 1 mM DTT, 5% glycerol, 0.1 mg/ml BSA) for 30 minutes at room temperature.
# The resulting complexes are separated on a 6% DNA retardation gel using 0.5× TBE with 20 mM KCl as a running buffer. The assay also can be conducted using nucleic acid ligands derived from human ribosomal DNA, whereby one can identify a compound that selectively modulates formation of a nucleolin/nucleic acid complex that depends on the conformation of the nucleic acid. Sequences of suitable nucleic acids are shown in the preceding example. […] A “+” represents the weakest nucleolin affinity and a “++++” represents the strongest nucleolin affinity. […] Using nucleic acids such as these having known conformational properties, one can identify a compound such as the compounds described herein that selectively interferes with binding of nucleolin to a particular quadruplex structure.
# T1 sequence (P19338 284-710 limits assumed): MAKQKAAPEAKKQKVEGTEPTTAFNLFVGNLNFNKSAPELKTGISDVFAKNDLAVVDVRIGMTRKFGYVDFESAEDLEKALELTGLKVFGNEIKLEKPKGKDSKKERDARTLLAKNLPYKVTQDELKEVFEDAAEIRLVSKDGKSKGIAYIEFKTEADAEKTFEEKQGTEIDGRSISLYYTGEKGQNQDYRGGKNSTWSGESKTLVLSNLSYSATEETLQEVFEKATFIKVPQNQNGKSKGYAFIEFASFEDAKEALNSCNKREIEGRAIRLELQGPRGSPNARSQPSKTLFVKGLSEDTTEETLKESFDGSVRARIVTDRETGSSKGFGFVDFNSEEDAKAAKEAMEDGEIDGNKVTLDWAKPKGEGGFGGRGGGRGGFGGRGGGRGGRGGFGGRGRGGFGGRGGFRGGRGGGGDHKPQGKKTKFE
row,Molecule,Affinity for Nucleolin
1,6183NT: human rDNA-derived DNA oligonucleotide GGGTCGGGGGCGGTGGTGGGCCCGCGGGGG (chemistry not given here) [Compound 6183NT],+
2,7733T: human rDNA-derived DNA oligonucleotide GGGAGGGGCACGGGCCGGGGGCGGGACGGG (chemistry not given here) [Compound 7733T],+
3,8511NT: human rDNA-derived DNA oligonucleotide GGGGGTGGGCGGGCGGGGCCGGGGGTGGG (chemistry not given here) [Compound 8511NT],++++
4,8749NT: human rDNA-derived DNA oligonucleotide GGGAGGGCGCGCGGGTCGGGG (chemistry not given here) [Compound 8749NT],+
5,11028NT: human rDNA-derived DNA oligonucleotide GGGGCGCGGCGGGGGGAGAAGGGTCGGGGCGGCAGGGG (chemistry not given here) [Compound 11028NT],+
6,"8762NT: human rDNA-derived DNA oligonucleotide CGGAGGGCGCGCGGGTCGGGGCGGCGGCGGCGGCGGCGGTGGCGGCGGCGGCGGGGGCGGCGGG (nucleic acid, chemistry not given here) DNA: CGGAGGGCGCGCGGGTCGGGGCGGCGGCGGCGGCGGCGGTGGCGGCGGCGGCGGGGGCGGCGGG",++++

# Source: US20100305136A1, “QUINOLONE ANALOGS DERIVATIZED WITH SULFONIC ACID, SULFONATE OR SULFONAMIDE” (priority 2006, published 2010)
